The source of these data is PMC12040169 (PLOS Biology, 2025).

For orientation: viability means a read-out of living cells in per cent, often relative to untreated cells.

The nature of the series: in vitro. The note with it: human, hela cells, % viability.
For `O=C(NCc1cc(C2CC2)[nH]n1)C1(c2ccccc2F)CC1` [CBK283140], the viability at 28.5 h, 10 µM was 97.6%.
Then `O=C(NC1CCCOC1)c1cc(-c2ccc(F)cc2)no1` (stereo not shown) [CBK283141], with 107%; and `CC1(C)CC(=O)c2cnc3cc(-c4ccco4)nn3c2C1` [CBK283142], with 102%; and `CC(=O)N1c2ccc(C(O)CN3CCSCC3)cc2CC1C` (stereo not shown) [CBK283143], with 98.9%.
Then `CC1Cc2cc(C(O)CN3CCCCC3)ccc2N1C(=O)C1CC1` (stereo not shown) [CBK283144], with 97.4%; and `CN(C)CCN(CCc1ccccc1)Cc1ccncc1` [CBK283145], with 91.5%; and `CC1CCCN(C(=O)c2cc(-c3ccccn3)n[nH]2)C1C` (stereo not shown) [CBK283146], with 88.5%.
Then `CN(CCc1ccncc1)C(=O)c1[nH]nc2c1CCCCC2` [CBK283151], with 96.9%; and `Cc1cc2ncc3c(n2n1)CC1CCC3N1C(=O)CCn1cccc1` (stereo not shown) [CBK283157], with 109%; and `COc1ccccc1CN(CCCn1ccnc1)Cc1cccn1C` [CBK283160], with 92.2%.
On to `CCN1CCCC1CN(Cc1ccccn1)Cc1ccco1` (stereo not shown) [CBK283161], for which the viability at 28.5 h, 10 µM was 91.3%.
For `O=C(NCCN1CCC(O)(c2ccc(F)cc2)CC1)C1CCCCC1` [CBK283165], the viability at 28.5 h, 10 µM was determined as 106%.
Regarding `Cc1ccc(C(=O)NCCN2CCC(O)(c3ccc(F)cc3)CC2)o1` [CBK283167], the viability at 28.5 h, 10 µM came to 86.3%.
For `C=CCn1ncc(CN(C)Cc2nc3ccccc3[nH]2)c1C` [CBK283169], the viability at 28.5 h, 10 µM was determined as 96%.
On to `C=Cn1ncc(CN(C)Cc2nc3ccccc3[nH]2)c1C` [CBK283170], for which the viability at 28.5 h, 10 µM came out at 91.6%.
As for `Cc1ccc(CN(CC2CCOC2)C2CC(C)(C)NC(C)(C)C2)o1` (stereo not shown) [CBK283174], the figure is 92.6%; as for `Cc1ccc(CN(Cc2[nH]cnc2C)C2CC(C)(C)NC(C)(C)C2)o1` [CBK283176], 96.7%.
Turning to `CN(C)CCCN(Cc1ccco1)Cc1cccn1-c1ccccn1` [CBK283180], the viability at 28.5 h, 10 µM was 99.8%.
Consider `Cc1ccnn1CCNC(=O)CCc1ccc(Cl)cc1` [CBK283182], for which the viability at 28.5 h, 10 µM came out at 91.1%.
Then `CN(CCc1cn[nH]c1)C(=O)CCc1ccc(Cl)cc1` [CBK283183], with 91.1%; and `O=C(CCc1ccc(Cl)cc1)NCCn1cncn1` [CBK283184], with 98.6%.
As for `Cc1cc(C)c2cc(CNC3CC3)c3nn(C)c(=O)n3c2c1` [CBK283186], the figure is 93.8%; as for `Cc1cccc(CN(CCCN(C)C)Cc2ccc(C)o2)n1` [CBK283187], 98.2%; as for `Cc1ccc(CN(CCCN(C)C)Cc2cnc(C)n2C)o1` [CBK283188], 95.4%.
Then `Cc1ccc(CN(Cc2cncn2C)C2CC(C)(C)NC(C)(C)C2)o1` [CBK283192], with 103%; and `CC1CCc2n[nH]c(C(=O)NC3CN4CCC3CC4)c2C1` (stereo not shown) [CBK283193], with 108%.
Turning to `CC1CCc2n[nH]c(C(=O)NCCCc3ccccn3)c2C1` (stereo not shown) [CBK283194], the viability at 28.5 h, 10 µM turned out to be 105%.
For the compound `CC1CCc2n[nH]c(C(=O)N(C)CCc3ccncc3)c2C1` (stereo not shown) [CBK283195], the viability at 28.5 h, 10 µM is 99.5%.
Then `CN(C)CCCN(Cc1ccc2ncccc2c1)Cc1ccco1` [CBK283197], with 112%; and `CCN(Cc1ccccc1)Cc1nc2ccccc2c(=O)[nH]1` [CBK283203], with 95.6%.
As for `CN(C)CCN(Cc1ccncc1)Cc1ccsc1` [CBK283206], the figure is 102%; as for `O=C(NCCCCn1ccnc1)c1noc2c1CCCC2` [CBK283208], 93.9%; as for `Cc1ccn(CCNC(=O)c2cc3ccc(F)cc3[nH]2)n1` [CBK283209], 91.9%.
`CCC(NC(=O)C(C)Cn1cccn1)c1ccc(F)cc1` (stereo not shown) [CBK283210]: the viability at 28.5 h, 10 µM is 88.1%.
Then `CN(CCc1ccncc1)C(=O)c1cc2ccc(F)cc2[nH]1` [CBK283215], with 81.3%.
As for `C1=CCC(CN(CCCn2ccnc2)CC2CCOC2)CC1` (stereo not shown) [CBK283217], the figure is 88.8%; as for `Cc1nc[nH]c1CN(CCCn1ccnc1)CC1CC=CCC1` (stereo not shown) [CBK283218], 83%; as for `CCn1cncc1CN(CCCn1ccnc1)CC1CC=CCC1` (stereo not shown) [CBK283220], 101%.
As for `Cc1nn(C(C)C)c(C)c1CN(Cc1ccccn1)Cc1ccco1` [CBK283221], the figure is 114%; as for `COc1cccc(C2(O)CCC3CN(C(C)=O)CC32)c1` (stereo not shown) [CBK283222], 95.8%.
For `CCC1c2cccn2CCN1C(=O)c1cc(-c2ccccn2)n[nH]1` (stereo not shown) [CBK283224], the viability at 28.5 h, 10 µM worked out at 102%.
As for `Cn1cncc1CN(Cc1ccccc1)C1CC(C)(C)NC(C)(C)C1` [CBK283226], the figure is 89.1%; as for `C=Cn1ncc(CN(CCCN(C)C)Cc2ccco2)c1C` [CBK283228], 96.8%; as for `Cc1ccc(CN(CCN(C)C)Cc2c(C)nc3sccn23)o1` [CBK283229], 116%.
As for `CC(C)C(=O)N[C@@H](C)Cn1c(C(F)(F)F)cc2cccnc21` [CBK283231], the figure is 95.6%; as for `CCCC(=O)N[C@@H](C)Cn1c(C(F)(F)F)cc2cccnc21` [CBK283232], 92.7%; as for `Cn1cc(CN(Cc2ccccc2)CC2CCCO2)cn1` (stereo not shown) [CBK283233], 85.1%.
Then `C=Cn1ncc(CN(CCN(C)C)Cc2ccc(C)o2)c1C` [CBK283236], with 110%; and `O=C(NC1CCCOC1)c1cnn(-c2ccc(F)cc2)c1` (stereo not shown) [CBK283248], with 89.4%; and `CC(Cn1cccn1)C(=O)Nc1cccc(N2CCCC2)c1` (stereo not shown) [CBK283249], with 87.1%.
Take `CC(Cc1cccs1)NC(=O)C(C)Cn1cccn1` (stereo not shown) [CBK283250]: the viability at 28.5 h, 10 µM is 85.4%.
As for `C[S+]([O-])CCNC(=O)c1cc(-c2ccc(F)cc2)no1` (stereo not shown) [CBK283251], the viability at 28.5 h, 10 µM turned out to be 89.6%.
On to `Cc1ccc(OCCNC(=O)C(C)Cn2cccn2)cc1` (stereo not shown) [CBK283252], for which the viability at 28.5 h, 10 µM was 111%.
Turning to `Cc1cc(C)c2[nH]c(C(=O)NCc3c(C)n[nH]c3C)c(C)c2c1` [CBK283254], the viability at 28.5 h, 10 µM was determined as 87.4%.
As for `FC(F)(F)c1[nH]c2ncccc2c1CN1CCSCC1` [CBK283257], the figure is 87.7%; as for `COc1ccccc1CCCNC(=O)c1ccc2nc(C)[nH]c2c1` [CBK283258], 84.7%.
As for `Cc1nc2ccc(C(=O)NC(c3ccccc3)c3cccnc3)cc2[nH]1` (stereo not shown) [CBK283259], the figure is 103%; as for `CC(C)(C)C(=O)NCCN1CCC(O)(c2ccc(F)cc2)CC1` [CBK283262], 92%.
Then `COc1cccc2c1cc(C(=O)NC1CCCN(C)C1)n2C` (stereo not shown) [CBK283266], with 90.2%.
On to `COc1cccc2c1cc(C(=O)NCCn1ccnc1C)n2C` [CBK283267], for which the viability at 28.5 h, 10 µM was 101%.
Regarding `CC1(C)CC(N(Cc2ccncc2)Cc2ccoc2)CC(C)(C)N1` [CBK283269], the viability at 28.5 h, 10 µM stood at 98.1%.
As for `Cc1c(C(=O)N(C)Cc2cccn2C)[nH]c2ccccc12` [CBK283270], the viability at 28.5 h, 10 µM came to 94.6%.
Then `Cc1ccc(CN(Cc2cncn2C)CC2CCCO2)o1` (stereo not shown) [CBK283272], with 93.2%; and `Cc1ncc(C(=O)NC2(c3ccccc3F)CCCC2)c(C)n1` [CBK283274], with 84.5%; and `CCc1nc2cc(NC(=O)c3cc(C4CC4)nn3C)ccc2n1C` [CBK283275], with 85.8%.
As for `Cc1ccc(-c2cc(C(=O)NC3CN4CCC3CC4)[nH]n2)o1` (stereo not shown) [CBK283276], the figure is 104%; as for `O=C(NCCn1nc2c(cc1=O)CCCCC2)c1cccs1` [CBK283277], 100%; as for `O=C(NCCn1nc2c(cc1=O)CCCCC2)c1ccccc1` [CBK283278], 85.7%.
Regarding `O=C(NCCn1nc2c(cc1=O)CCCCC2)c1ccc(F)cc1` [CBK283279], the viability at 28.5 h, 10 µM amounted to 93.3%.
As for `Cc1nc2ccc(C(=O)NCCN3CCc4ccccc43)cc2[nH]1` [CBK283280], the figure is 94.2%.
As to `COc1cccc2c1cc(C(=O)NCCCc1ccccn1)n2C` [CBK283283], the viability at 28.5 h, 10 µM came out at 83.7%.
Then `CC1CC1C(=O)NCCN1CCC(O)(c2cccc(F)c2)CC1` (stereo not shown) [CBK283286], with 84.4%; and `O=C(NCCCc1ccccn1)c1cnn(-c2ccc(F)cc2)c1` [CBK283287], with 87.6%; and `O=C(NCCCC1CCOC1)c1cnn(-c2ccc(F)cc2)c1` (stereo not shown) [CBK283288], with 92.5%.
Turning to `COc1ccccc1CC(C)NC(=O)c1cc(C2CC2)nn1C` (stereo not shown) [CBK283290], the viability at 28.5 h, 10 µM worked out at 83.8%.
Regarding `Cc1ccc(CN(Cc2cnc(C)n2C)CC2CCCO2)o1` (stereo not shown) [CBK283291], the viability at 28.5 h, 10 µM worked out at 100%.
With `CC(C)N1CCC(CNC(=O)c2cc(C3CCCCC3)no2)CC1` [CBK283293], the viability at 28.5 h, 10 µM turned out to be 98.5%.
As for `CC(C)N1CCCC(CNC(=O)c2cc(C3CCCCC3)no2)C1` (stereo not shown) [CBK283294], the figure is 97.2%.
As for `Cc1nccn1CCNC(=O)c1cc(C2CCCCC2)no1` [CBK283295], the figure is 89.6%; as for `CCCN1CCC(CNC(=O)c2cc(C3CCCCC3)no2)CC1` [CBK283297], 98.2%.
For the compound `Cc1cccc(C2(O)CCN(C(=O)c3ccc4nc(C)[nH]c4c3)CC2)c1` [CBK283299], the viability at 28.5 h, 10 µM is 102%.
Then `Cc1nc2ccc(C(=O)N3CCC(O)(c4ccccc4C)CC3)cc2[nH]1` [CBK283300], with 95.8%; and `Cc1nc2ccc(C(=O)NCCCN3Cc4ccccc4C3)cc2[nH]1` [CBK283301], with 90.3%.
As for `Cc1ccc(C2(CN3CCN(Cc4ncc[nH]4)CC3)CC2)cc1` [CBK283306], the figure is 95.9%; as for `Cc1ccc(C2(CN3CCN(Cc4cncn4C)CC3)CC2)cc1` [CBK283308], 107%.
